Literature values, collected in patent US20140018379A1, “PYRIMIDINE DERIVATIVES” (CONCERT PHARMACEUTICALS INC., priority 2010, published 2014).

Settings: 12th CROI 2005, Abst 160

Cc1cc(/C=C/C#N)cc(C)c1Nc1ccnc(Nc2ccc(C#N)cc2)n1.Cl [rilpivirine, 4-[4-[4-[(E)-2-cyanovinyl]-2,6-dimethylphenylamino]pyrimidin-2-ylamino]benzonitrile hydrochloride]
safety and tolerability in clinical trials: safe and well-tolerated
most commonly reported adverse event (clinical trials): Headache
